The test system of assay [1] is Hut78 T lymphocytic leukemia cells. As to the kind of experiment: In vitro anti-proliferative effect, CCK-8 method, Hut78. It is filed as cell-based. The note with it: Homo sapiens, HuT78, read-out: Hut-78 (inhibition %). On the procedure:
(§1) The inhibitory activities of the compounds towards Hut78 T lymphocytic leukemia cells, Jurkat E6-1 human T-cell lymphoma, PANC-1 human pancreatic cancer cells, A549 human lung cancer cells, K562 human chronic myelogenous leukemia cells, Hep3B2.1-7 human liver cancer cells, MDA-MB-435s human breast cancer cells. Colo320 human colorectal cancer cell lines, and PC-3 human prostate cancer at two concentrations of 100 μM and 10 μM were determined. The inhibition percentages were obtained through CCK-8 method.
On the technique in general: Tetrazolium assays rely on reduction of a dye to a coloured formazan, in cell work by metabolically active cells.

Assay [2] has as its system Colo320 human colorectal cancer cell lines. As to the kind of experiment: In vitro anti-proliferative effect, CCK-8 method, Colo320. The class given is cell-based. To be noted: Homo sapiens, COLO 320, Colo320 cell strain, CCK-8 method; for inhibition at 10 µM: compound at 10 μM; for inhibition at 100 µM: compound at 100 μM. As to the method: as §1
A further assay concerns HDACs. As to the kind of experiment: In vitro inhibition of HDACs (HDAC Inhibitor Drug Screening Kit, Biovision K340-100). It is filed as biochemical. The note with it: for inhibitory activity on HDACs compared with MS-275: concentrations of 2 mM, 200 μM, and 40 μM. As to the method:
The in vitro inhibitory activities of the compounds towards HDACs were tested according to the instructions in the HDAC Inhibitor Drug Screening Kit (Biovision/Catalog #K340-100).
(1) The compounds to be tested were each individually prepared as 2 mM, 200 μM and 40 μM solutions and their inhibitory activities at these concentrations were tested.

Assay [3] concerns MDA-MB-435s human breast cancer cells. As to the kind of experiment: In vitro anti-proliferative effect, CCK-8 method, MDA-MB-435s. It is filed as cell-based. The note with it: Homo sapiens, MDA-MB-435S. As to the method:
as §1

For assay [4], the system named is K562 human chronic myelogenous leukemia cells. As to the kind of experiment: In vitro anti-proliferative effect, CCK-8 method, K562. The class given is cell-based. To be noted: Homo sapiens, K562. As to the method: as §1
In assay [5] the test system is Hep3B2.1-7 human liver cancer cells. As to the kind of experiment: In vitro anti-proliferative effect, CCK-8 method, Hep3B. The class given is cell-based. To be noted: Homo sapiens, Hep3B cell strain, CCK-8 method; for inhibition at 10 µM: compound at 10 μM; for inhibition at 100 µM: compound at 100 μM. On the procedure:
as §1

In assay [6] the test system is PANC-1 human pancreatic cancer cells. As to the kind of experiment: In vitro anti-proliferative effect, CCK-8 method, PANC-1. To be noted: Homo sapiens, PANC-1. The class given is cell-based. On the procedure:
as §1

Assay [7] deals with A549 human lung cancer cells. As to the kind of experiment: In vitro anti-proliferative effect, CCK-8 method, A549. It is filed as cell-based. The note with it: Homo sapiens, A549. As to the method: as §1
The test system of assay [8] is Jurkat E6-1 human T-cell lymphoma. As to the kind of experiment: In vitro anti-proliferative effect, CCK-8 method, Jurkat E6-1. It is filed as cell-based. To be noted: Homo sapiens, Jurkat E6.1. As to the method: as §1
Assay [9] has as its system PC-3 human prostate cancer. As to the kind of experiment: In vitro anti-proliferative effect, CCK-8 method, PC-3. To be noted: Homo sapiens, PC-3 cell strain, CCK-8 method; for inhibition at 10 µM: compound at 10 μM; for inhibition at 100 µM: compound at 100 μM. It is filed as cell-based. As to the method:
as §1

pIC50: −log10 of the molar value.

Usually inhibition stands for the change of the read-out against control, counted positive when it falls. One may read the pIC50 as −log10 of the IC50, conventionally taken in molar units. High values mean a low IC50, low ones a high IC50.

Turning to `Nc1ccccc1NC(=O)c1ccc(Nc2ncnc3ccccc23)cc1` [Compound V-1, N-(2-aminophenyl)-4-(quinazoline-4-amino)benzamide], the inhibition at 10 µM worked out at 36% in assay [1]; 33.7% in [2]; 26.7% in [3]; 22.4% in assay [4]; 2.6% in assay [5]; 40.2% in assay [6]. The inhibition at 10 µM in assay [7] was determined as 50.6%; in assay [8], 48.5%; in assay [9] it was 79.5%. For the same compound, the inhibition at 100 µM in [1] is 67.2%; in assay [2], 78.3%; in [3], 87.5%; in assay [4] it was 30.8%; in [5], 37.4%; in assay [6], 65.4%. Moreover, the inhibition at 100 µM in assay [7] turned out to be 89.7%; in assay [8], 79.3%; in assay [9], 91.5%. Besides, the “Inhibition percentage (%) towards HDACs” value with HDACs (40 μM) stood at 9.4%; with HDACs (200 μM), 19.8%; in the assay on HDACs (2 mM), 65.2%.
`CC(=O)Nc1ccc2ncnc(NCc3ccc(C(=O)Nc4cc(-c5ccco5)ccc4N)cc3)c2c1` [Compound V-48, N-[2-amino-5-(2-furyl)phenyl]-4-[(6-acetamidoquinazoline-4-amino)methyl]benzamide]: the inhibition at 10 µM is 75.4% in assay [1]; 2.9% in [2]; 10% in assay [3]; 20% in assay [4]; -14% in [5]; -2.2% in assay [6]. The inhibition at 10 µM in assay [7] is 3.9%; in assay [8], 9.7%; in assay [9], -16.4%. Also, the inhibition at 100 µM was 87.4% in [1]; 17.9% in assay [2]; 26.6% in assay [3]; 57.2% in assay [4]; 20.5% in assay [5]; 51.8% in assay [6]. In addition, the inhibition at 100 µM stood at 9.8% in assay [7], 61.9% in assay [8] and 14.8% in assay [9]. The “Inhibition percentage (%) towards HDACs” value in the assay on HDACs (40 μM) turned out to be 14.0%; in the assay with HDACs (200 μM), 42.2%; with HDACs (2 mM), 85.0%.
As to `COc1cc2ncnc(NCc3ccc(C(=O)Nc4ccncc4N)cc3)c2cc1OCCCN1CCOCC1` [Compound V-42], in the assay with HDACs, the negative-log IC50 (pIC50) is 5.78, the “inhibitory activity according to in vitro IC50 value against HDACs compared with MS-275” value is listed as “better inhibitory activities than MS-275” and the “inhibitory activity on HDACs compared with MS-275” value is “significantly stronger inhibitory activities than MS-275”. Moreover, the “Inhibition percentage (%) towards HDACs” value in the assay on HDACs (40 μM) was determined as 17.2%. Also, in the assay with HDACs (200 μM), the “Inhibition percentage (%) towards HDACs” value was found to be 46.7%. Also, the “Inhibition percentage (%) towards HDACs” value with HDACs (2 mM) was found to be 90.6%.
Take `COCCOc1cc2ncnc(NCc3ccc(C(=O)Nc4ccncc4N)cc3)c2cc1OCCOC` [Compound V-39, N-(2-amino-4-pyridyl)-4-[(6,7-dimethoxyethoxyquinazoline-4-amino)methyl]benzamide]: the figures for the “Inhibition percentage (%) towards HDACs” value in the assay with HDACs (40 μM), with HDACs (200 μM) and in the assay on HDACs (2 mM) were 34.3%, 58.0% and 85.3%, respectively.
Turning to `COc1ccc2c(NCc3ccc(C(=O)Nc4ccccc4N)cc3)ncnc2c1` [Compound V-32, N-(2-aminophenyl)-4-[(7-methoxyquinazoline-4-amino)methyl]benzamide], the “Inhibition percentage (%) towards HDACs” value is reported as 2.2% in the assay on HDACs (40 μM), 3.1% with HDACs (200 μM) and 42.5% in the assay with HDACs (2 mM).
On to `COc1ccc2ncnc(NCc3ccc(C(=O)Nc4ccccc4N)cc3)c2c1` [Compound V-33, N-(2-aminophenyl)-4-[(6-methoxyquinazoline-4-amino)methyl]benzamide], for which, in the assay with HDACs, the pIC50 is 6.00, the “inhibitory activity according to in vitro IC50 value against HDACs compared with MS-275” value is “better inhibitory activities than MS-275” and the “inhibitory activity on HDACs compared with MS-275” value is given as “significantly stronger inhibitory activities than MS-275”. For the same compound, the “Inhibition percentage (%) towards HDACs” value in the assay on HDACs (40 μM) worked out at 53.2%. Also, the “Inhibition percentage (%) towards HDACs” value with HDACs (200 μM) turned out to be 66.8%. The “Inhibition percentage (%) towards HDACs” value in the assay on HDACs (2 mM) is on record as 88.8%.
Take `COc1cc2ncnc(NCc3ccc(C(=O)Nc4cc(-c5cccs5)ccc4N)cc3)c2cc1OC` [Compound V-31, N-[2-amino-5-(2-thienyl)phenyl]-4-[(6,7-dimethoxyquinazoline-4-amino)methyl]benzamide]: the inhibition at 10 µM in assay [1] was 28.2%; in [2] it was 76.3%; in [3] it was 24.2%; in assay [4], 27.9%; in [5], -5%; in assay [6] it was 20.8%. Also, the inhibition at 10 µM in assay [7] was determined as 56.3%; in assay [8] it was 62.4%; in [9], 6.3%. Further, the inhibition at 100 µM was found to be 95.8% in [1]; 77% in [2]; 89.2% in assay [3]; 67.7% in [4]; 51.7% in [5]; 50.6% in [6]. The inhibition at 100 µM in [7] amounted to 88.8%; in [8], 93.7%; in [9] it was 38.8%. In addition, the “Inhibition percentage (%) towards HDACs” value is reported as 3.5% in the assay on HDACs (40 μM), 17.3% in the assay on HDACs (200 μM) and 69.8% in the assay with HDACs (2 mM).
Regarding `Nc1ccccc1NC(=O)c1ccc(CNc2ncnc3ccc([N+](=O)[O-])cc23)cc1` [Compound V-37, N-(2-aminophenyl)-4-[(6-nitroquinazoline-4-amino)methyl]benzamide], the “Inhibition percentage (%) towards HDACs” value is on record as 24.0% in the assay with HDACs (40 μM), 56.1% in the assay on HDACs (200 μM) and 65.7% in the assay with HDACs (2 mM).
Regarding `Nc1ccc(F)cc1NC(=O)c1ccc(Nc2ncnc3ccccc23)cc1` [Compound V-3, N-(2-amino-5-fluorophenyl)-4-(quinazoline-4-amino)benzamide], the inhibition at 10 µM is 18.2% in assay [1]; -7.1% in assay [2]; 4.5% in assay [3]; 51% in assay [4]; -12.3% in assay [5]; 5.7% in assay [6]. The inhibition at 10 µM in assay [7] was -7.8%; in assay [8], 27.1%; in assay [9], 0.6%. Besides, the inhibition at 100 µM in assay [1] is 92.9%; in assay [2] it was 47.2%; in assay [3] it was 85.5%; in assay [4], 85.1%; in [5], 59.2%; in [6], 5.5%. The inhibition at 100 µM in [7] was determined as 72.3%; in [8], 96%; in [9] it was 36.9%. Moreover, the “Inhibition percentage (%) towards HDACs” value was determined as 9.5% with HDACs (40 μM), 36.0% in the assay with HDACs (200 μM) and 78.2% with HDACs (2 mM).
As to `COc1cccc2c(NCc3ccc(C(=O)Nc4cc(F)ccc4N)cc3)ncnc12` [Compound V-35, N-(2-amino-5-fluorophenyl)-4-[(8-methoxyquinazoline-4-amino)methyl]benzamide], the “Inhibition percentage (%) towards HDACs” value is reported as 10.1% in the assay with HDACs (40 μM), 47.8% in the assay with HDACs (200 μM) and 81.8% in the assay on HDACs (2 mM).

Source of the values: patent US9034886B2, “4-aminoquinazoline derivatives and uses thereof” (Shanghai Institute of Pharmaceutical Industry, priority 2011, dated 2015).
